Results as given in patent publication US9708314B2, “Heterocyclic amide compound” (NISSAN CHEMICAL INDUSTRIES, LTD., priority 2013, dated 2017).

Assays:
Assay type in all cases: in vivo
[1] = test system: transplanted Oryza sativa; test: Test Example 1: effect on crop, application before weed generation in submerged conditions; conditions: Application herbicide amount 320 g/ha; Seventeenth Table
In short: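 Pre-emergence application to water surface of submerged pots (4 cm depth, alluvial soil) on sowing day, with 2.5-leaf rice transplanted; emulsion diluted to g/ha rates. Grown in greenhouse at 25–30 °C; 0–5 herbicidal/crop-effect score after three weeks.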

[2] = test system: Scirpus juncoides; test: Test Example 2: herbicidal activity, application during weed generation in submerged conditions; conditions: Eighteenth Table; application herbicide amount 320 g/ha
In short: (§1)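 Mixed sowings in flooded alluvial soil (4 cm water), greenhouse 25-30 °C; emulsifiable concentrate diluted in water applied to the water surface at the 1-2 leaf stage, rate in g/ha. Effect scored three weeks later on a 0-5 scale (5 = ≥90% herbicidal ratio, 0 = ≤5%).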

[3] = test system: Echinochloa oryzacola Vasing.; test: as above; conditions: Eighteenth Table; application herbicide amount 320 g/ha
In short: as §1

[4] = test system: Monochoria vaginalis; test: as above; conditions: Eighteenth Table; application herbicide amount 320 g/ha
In short: as §1

[5] = test system: Triticum aestivum; test: Test Example 4: effect on crop by application to foliage (diluvial soil, plastic box); conditions: for e (Triticum aestivum) effect on crop grade / e: Application herbicide amount 320 g/ha; for e (Triticum aestivum) effect on crop grade: foliage application; for e: effect on crop, Triticum aestivum: application to foliage, application herbicide amount 320 g/ha; for e: effect on crop
In short: (§2)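 Plants were grown in sterilized diluvial soil in a greenhouse at 25-30° C for 14 days, then sprayed on stems and leaves with water-diluted emulsion formulation at set rates in g/ha. Weed control and crop injury were scored 3 weeks after treatment on a 0-5 herbicidal-ratio scale, from 0 (≤5%) to 5 (≥90%).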

[6] = test system: Beta vulgaris ssp. vulgaris; test: as above; conditions: for f (Beta vulgaris ssp. vulgaris) effect on crop grade / f: Application herbicide amount 320 g/ha; for f (Beta vulgaris ssp. vulgaris) effect on crop grade: foliage application; for f: effect on crop, Beta vulgaris ssp. vulgaris: application to foliage, application herbicide amount 320 g/ha; for f: effect on crop
In short: as §2

[7] = test system: directly sowed Oryza sativa; test: as above; conditions: for b (directly sowed Oryza sativa) effect on crop grade / d: Application herbicide amount 320 g/ha; for b (directly sowed Oryza sativa) effect on crop grade: foliage application; for b: effect on crop, directly sowed Oryza sativa: application to foliage, application herbicide amount 320 g/ha; for d: effect on crop
In short: as §2

[8] = test system: Zea mays; test: as above; conditions: for c (Zea mays) effect on crop grade / b: Application herbicide amount 320 g/ha; for c (Zea mays) effect on crop grade: foliage application; for c: effect on crop, Zea mays: application to foliage, application herbicide amount 320 g/ha; for b: effect on crop
In short: as §2

[9] = test system: Brassica campestris L.; test: as above; conditions: for g (Brassica campestris L.) effect on crop grade / g: Application herbicide amount 320 g/ha; for g (Brassica campestris L.) effect on crop grade: foliage application; for g: effect on crop, Brassica campestris L.: application to foliage, application herbicide amount 320 g/ha; for g: effect on crop
In short: as §2

Structure (SMILES)	a: transplanted Oryza sativa (effect on crop grade) [1]	B (Scirpus juncoides) herbicidal ratio grade [2]	A (Echinochloa oryzicola Vasing.) herbicidal ratio grade [3]	C (Monochoria vaginalis) herbicidal ratio grade [4]	e (Triticum aestivum) effect on crop grade [5]	f (Beta vulgaris ssp. vulgaris) effect on crop grade [6]	b (directly sowed Oryza sativa) effect on crop grade [7]	c (Zea mays) effect on crop grade [8]	g (Brassica campestris L.) effect on crop grade [9]	e: effect on crop, Triticum aestivum [5]	f: effect on crop, Beta vulgaris ssp. vulgaris [6]	b: effect on crop, directly sowed Oryza sativa [7]	c: effect on crop, Zea mays [8]	g: effect on crop, Brassica campestris L. [9]	e [5]	f [6]	d [7]	b [8]	g [9]
CCC(CC)c1nnc2c(C(=O)Nc3nnco3)ccc(C(F)(F)F)n12 [1-145]	4 (Herbicidal ratio of 70% or more and less than 90%)	4 (Herbicidal ratio of 70% or more and less than 90%)	4 (Herbicidal ratio of 70% or more and less than 90%)	4 (Herbicidal ratio of 70% or more and less than 90%)	2 (Herbicidal ratio of 20% or more and less than 40%)	5 (Herbicidal ratio of 90% or more (almost completely withered))	3 (Herbicidal ratio of 40% or more and less than 70%)	0 (Herbicidal ratio of 5% or less (almost no effect))	3 (Herbicidal ratio of 40% or more and less than 70%)										
Cn1nnnc1NC(=O)c1ccc(C(F)(F)F)n2c(-c3ccccc3)nnc12 [2-007]	3 (Herbicidal ratio of 40% or more and less than 70%)	4 (Herbicidal ratio of 70% or more and less than 90%)	4 (Herbicidal ratio of 70% or more and less than 90%)	4 (Herbicidal ratio of 70% or more and less than 90%)						2 (Herbicidal ratio of 20% or more and less than 40%)	5 (Herbicidal ratio of 90% or more (almost completely withered))	2 (Herbicidal ratio of 20% or more and less than 40%)	0 (Herbicidal ratio of 5% or less (almost no effect))	4 (Herbicidal ratio of 70% or more and less than 90%)					
COCc1nnc2c(C(=O)Nc3nnnn3C)ccc(C(F)(F)F)n12 [2-010, 3-(Methoxymethyl)-N-(1-methyl-1H-tetrazol-5-yl)-5-(trifluoromethyl)-[1,2,4]triazol o[4,3-a]pyridine-8-carboxamide]	4 (Herbicidal ratio of 70% or more and less than 90%)	4 (Herbicidal ratio of 70% or more and less than 90%)	5 (Herbicidal ratio of 90% or more (almost completely withered))	4 (Herbicidal ratio of 70% or more and less than 90%)						3 (Herbicidal ratio of 40% or more and less than 70%)	5 (Herbicidal ratio of 90% or more (almost completely withered))	5 (Herbicidal ratio of 90% or more (almost completely withered))	3 (Herbicidal ratio of 40% or more and less than 70%)	5 (Herbicidal ratio of 90% or more (almost completely withered))					
CCC(C)c1nnc2c(C(=O)Nc3nnnn3C)ccc(C(F)(F)F)n12 (stereo not drawn) [2-016]	4 (Herbicidal ratio of 70% or more and less than 90%)	5 (Herbicidal ratio of 90% or more (almost completely withered))	5 (Herbicidal ratio of 90% or more (almost completely withered))	5 (Herbicidal ratio of 90% or more (almost completely withered))						4 (Herbicidal ratio of 70% or more and less than 90%)	5 (Herbicidal ratio of 90% or more (almost completely withered))	5 (Herbicidal ratio of 90% or more (almost completely withered))	1 (Herbicidal ratio of 5% or more and less than 20%)	4 (Herbicidal ratio of 70% or more and less than 90%)					
O=C(Nc1nnco1)c1ccc(C(F)(F)F)n2c(-c3ccc(Cl)nc3)nnc12 [1-150]	4 (Herbicidal ratio of 70% or more and less than 90%)	5 (Herbicidal ratio of 90% or more (almost completely withered))	5 (Herbicidal ratio of 90% or more (almost completely withered))	4 (Herbicidal ratio of 70% or more and less than 90%)	3 (Herbicidal ratio of 40% or more and less than 70%)	5 (Herbicidal ratio of 90% or more (almost completely withered))	3 (Herbicidal ratio of 40% or more and less than 70%)	0 (Herbicidal ratio of 5% or less (almost no effect))	5 (Herbicidal ratio of 90% or more (almost completely withered))										
C=CCSc1nnc2c(C(=O)Nc3nnc(C)o3)ccc(C(F)(F)F)n12 [1-064]	0 (Herbicidal ratio of 5% or less (almost no effect))	3 (Herbicidal ratio of 40% or more and less than 70%)	2 (Herbicidal ratio of 20% or more and less than 40%)	2 (Herbicidal ratio of 20% or more and less than 40%)											0 (Herbicidal ratio of 5% or less (almost no effect))	4 (Herbicidal ratio of 70% or more and less than 90%)	3 (Herbicidal ratio of 40% or more and less than 70%)	0 (Herbicidal ratio of 5% or less (almost no effect))	3 (Herbicidal ratio of 40% or more and less than 70%)
CCCSc1nnc2c(C(=O)Nc3nnco3)ccc(C(F)(F)F)n12 [1-108]	0 (Herbicidal ratio of 5% or less (almost no effect))	4 (Herbicidal ratio of 70% or more and less than 90%)	4 (Herbicidal ratio of 70% or more and less than 90%)	3 (Herbicidal ratio of 40% or more and less than 70%)	1 (Herbicidal ratio of 5% or more and less than 20%)	5 (Herbicidal ratio of 90% or more (almost completely withered))	1 (Herbicidal ratio of 5% or more and less than 20%)	1 (Herbicidal ratio of 5% or more and less than 20%)	3 (Herbicidal ratio of 40% or more and less than 70%)										
CCSc1nnc2c(C(=O)Nc3nnco3)ccc(C(F)(F)F)n12 [1-106]	1 (Herbicidal ratio of 5% or more and less than 20%)	5 (Herbicidal ratio of 90% or more (almost completely withered))	5 (Herbicidal ratio of 90% or more (almost completely withered))	4 (Herbicidal ratio of 70% or more and less than 90%)	3 (Herbicidal ratio of 40% or more and less than 70%)	5 (Herbicidal ratio of 90% or more (almost completely withered))	3 (Herbicidal ratio of 40% or more and less than 70%)	1 (Herbicidal ratio of 5% or more and less than 20%)	4 (Herbicidal ratio of 70% or more and less than 90%)										
COCCSc1nnc2c(C(=O)Nc3nnc(C)o3)ccc(C(F)(F)F)n12 [1-063]	0 (Herbicidal ratio of 5% or less (almost no effect))	3 (Herbicidal ratio of 40% or more and less than 70%)	4 (Herbicidal ratio of 70% or more and less than 90%)	2 (Herbicidal ratio of 20% or more and less than 40%)											2 (Herbicidal ratio of 20% or more and less than 40%)	5 (Herbicidal ratio of 90% or more (almost completely withered))	4 (Herbicidal ratio of 70% or more and less than 90%)	0 (Herbicidal ratio of 5% or less (almost no effect))	3 (Herbicidal ratio of 40% or more and less than 70%)
